According to PubChem BioAssay (NCI):
Several values for one entry are separate records, joined by “and”; a condition that tells them apart may be missing. Equal entries are not always repeated.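 Method: 48-hour compound exposure of cells in 96-well plates, five concentrations, linear interpolation of endpoints. GI50 marks 50% less growth. TGI denotes the concentration required for complete inhibition of growth.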

What was measured:
Assay in all cases: DTP human tumour cell line panel, 48 h
A549 NSCLC = system: A549 NSCLC
DLD-1 colon = system: DLD-1 colon
IGROV1 ovarian = system: IGROV1 ovarian
KM20L2 colon = system: KM20L2 colon
LOX IMVI melanoma = system: LOX IMVI melanoma
NCI-H226 lung = system: NCI-H226 lung
OVCAR-4 ovarian = system: OVCAR-4 ovarian
PC-3 prostate = system: PC-3 prostate
SF-268 CNS = system: SF-268 CNS
SK-MEL-2 melanoma = system: SK-MEL-2 melanoma
UO-31 renal = system: UO-31 renal

Compound | GI50 (A549 NSCLC) | TGI (A549 NSCLC) | TGI (DLD-1 colon) | GI50 (IGROV1 ovarian) | TGI (IGROV1 ovarian) | TGI (KM20L2 colon) | TGI (LOX IMVI melanoma) | TGI (NCI-H226 lung) | TGI (OVCAR-4 ovarian) | TGI (PC-3 prostate) | TGI (SF-268 CNS) | TGI (SK-MEL-2 melanoma) | GI50 (UO-31 renal) | TGI (UO-31 renal)
COc1ccc2[nH]c3ccc4cc[n+](CCN5CCC(C6CCN(CC[n+]7ccc8ccc9[nH]c%10ccc(OC)cc%10c9c8c7)CC6)CC5)cc4c3c2c1 | 747 nM | 50 µM and > 62.2 µM | > 100 µM | 269 nM | 50 µM and > 19 µM | > 100 µM | 50 µM and > 58.6 µM | 50 µM | 17.7 µM and > 100 µM | 50 µM | 50 µM and > 56.9 µM | > 90.7 µM | 42.5 µM | 50 µM and > 100 µM
CN(C)CCNC(=O)c1cccc2c1C(=O)c1ccccc1C2=O | – | > 100 µM | > 77.6 µM | – | > 76.5 µM | 77 µM | > 75.1 µM | > 100 µM | 88.8 µM | – | > 100 µM | > 90.5 µM | – | > 100 µM
COc1ccc(C2CC(c3sc(Nc4ccc(C)cc4)nc3C)=NN2)cc1 (stereo not given) | – | 33 µM | 35.7 µM | – | > 56.9 µM | 31.3 µM | 34.4 µM | 33.5 µM | 18.3 µM | – | 37.4 µM | 30.7 µM | – | 29.4 µM
Cc1ccc(C(=O)Nc2ccc(S(=O)(=O)O)c3cc(S(=O)(=O)O)cc(S(=O)(=O)O)c23)cc1NC(=O)c1cccc(NC(=O)Nc2cccc(C(=O)Nc3cc(C(=O)Nc4ccc(S(=O)(=O)O)c5cc(S(=O)(=O)O)cc(S(=O)(=O)O)c45)ccc3C)c2)c1 | – | > 100 µM | > 100 µM | – | > 100 µM | > 100 µM | > 100 µM | > 89.4 µM | > 100 µM | > 100 µM | > 100 µM | > 100 µM | – | 87.3 µM
CC1[C@@]2(O[C@@H]3C=C4C5CCC6Cc7nc8c(nc7C[C@@]6(C)C5C[C@H](O)[C@@]4(C)[C@]13O)CC1CCc3c(cc4c5c3C(O)C[C@H]5[C@@H](C)C3(O4)OC(C)(C)CC3O)[C@]1(C)C8)O[C@@](C)(CO)C[C@@H]2O (stereo not given in full) | – | > 3.72 µM | > 3.72 µM | – | > 3.72 µM | > 3.72 µM | > 3.72 µM | 2.35 µM | – | – | 2.65 µM | > 3.72 µM | – | > 3.72 µM
O=C(CCCc1cccc2[nH]c3c(c12)CN(Cc1ccccc1)CC3)c1ccc(F)cc1 | – | > 100 µM | – | – | > 100 µM | – | > 100 µM | > 100 µM | > 100 µM | > 100 µM | > 100 µM | > 100 µM | – | > 100 µM
COc1ccc(SCc2cc(OC)ccc2OC)cc1 | – | > 100 µM | – | – | > 100 µM | – | > 100 µM | > 100 µM | > 100 µM | > 100 µM | > 100 µM | > 88.8 µM | – | > 100 µM
Cc1[nH]c(=O)nc(N/N=C/c2c3ccccc3c(Cl)c3ccccc23)c1C(=O)Nc1ccc(Cl)cc1 | – | > 100 µM | – | – | > 100 µM | – | > 100 µM | > 100 µM | > 100 µM | > 100 µM | > 100 µM | > 100 µM | – | > 100 µM
CCC1c2[nH]c3ccccc3c2C[C@H]2C(=O)NC(C)C(=O)N12 (stereo not given in full) | – | > 100 µM | – | – | > 100 µM | – | > 100 µM | > 100 µM | > 100 µM | > 100 µM | > 100 µM | > 100 µM | – | > 100 µM
CCC1(O)C(=O)OCc2c1cc1n(c2=O)Cc2cc3cc4c(cc3nc2-1)OCO4 (stereo not given) | – | 0.259 µM | > 60.3 µM | – | 1.54 µM | 0.738 µM | 0.0688 µM | 0.0252 µM | 1.49 µM | > 100 µM | 0.761 µM | 2.01 µM | – | 0.0512 µM
Cc1ccc([N+](=O)[O-])cc1S(=O)(=O)Nc1ccc(C2=NN(S(=O)(=O)c3cc([N+](=O)[O-])ccc3C)C(c3cccs3)C2)cc1 (stereo not given) | – | > 100 µM | – | – | > 100 µM | – | > 100 µM | > 100 µM | > 100 µM | > 100 µM | 75 µM | 69.2 µM | – | > 100 µM
C(=N\NC1=NCCCCN1)/c1ccc2ccccc2c1 | – | > 100 µM | – | – | > 100 µM | – | 29.8 µM | 66.1 µM | > 100 µM | > 100 µM | > 100 µM | 46.7 µM | – | > 100 µM
CCO/N=C\c1ccc2oc(-c3ccccc3)cc(=O)c2c1 | – | 17 µM | – | – | 10.7 µM | – | > 48.7 µM | 7.01 µM | > 85.9 µM | 20.4 µM | 24.2 µM | 4.54 µM | – | 5.83 µM
CC1=C(C)C(=O)OC(C(C)(O)C2(O)CC3OC34C3CC(O)C56OC5C=CC(=O)C6(C)C3CCC42C)C1 (stereo not given) | – | 15.5 µM | – | – | 6.09 µM | – | 5.38 µM | 12.9 µM | 20.3 µM | 14.2 µM | 7.96 µM | 10.8 µM | – | 2.62 µM
CCCCn1c(=O)[nH]c2c(N)ncnc21 | – | > 100 µM | – | – | > 100 µM | – | > 100 µM | > 100 µM | > 100 µM | > 100 µM | > 100 µM | > 100 µM | – | > 100 µM
O=[N+]([O-])c1ccc(C[P+]2(c3ccccc3)CCCCC2)cc1 (tested in a mixture with another compound) | – | > 100 µM | > 100 µM | – | > 100 µM | – | > 100 µM | – | > 100 µM | – | > 100 µM | > 100 µM | – | > 100 µM
COc1cc(/C=C/C(=O)CC(=O)/C=C/c2cc(C)c(O)c(OC)c2)cc(C)c1O | – | > 100 µM | – | – | > 100 µM | – | > 100 µM | > 100 µM | > 100 µM | > 100 µM | > 100 µM | > 100 µM | – | > 100 µM
CCC1(CC)C(=O)NC(=O)NC1=S | – | > 100 µM | > 100 µM | – | > 100 µM | > 100 µM | > 100 µM | > 100 µM | > 100 µM | – | > 100 µM | > 100 µM | – | > 100 µM
C/C(Cc1ccc2c(c1)OCO2)=N\N=c1\sc2ccccc2n1C | – | > 100 µM | – | – | > 100 µM | – | > 100 µM | > 100 µM | > 100 µM | > 100 µM | > 100 µM | > 100 µM | – | > 100 µM
N=C1OC(CN2CCN(c3ccccc3)CC2)CN1C(=O)Nc1ccccc1 (stereo not given) | – | > 100 µM | – | – | > 100 µM | – | > 100 µM | > 100 µM | > 100 µM | > 100 µM | > 100 µM | > 100 µM | – | > 100 µM
NCCCn1c(Cl)nc2ccccc21 | – | > 100 µM | – | – | > 100 µM | – | > 100 µM | > 100 µM | > 100 µM | > 100 µM | > 100 µM | > 100 µM | – | > 100 µM
